Results taken from patent US7223758B2, “Pyridazine derivative, pharmaceutical composition thereof, its pharmaceutical use, and process for its preparation” (Sanofi-Aventis, priority 2002, dated 2007).

target: T1, cathepsin K (Homo sapiens, UniProt P43235); assay: Study of the inhibition of cathepsin K (fluorogenic substrate Z-Val-Arg-AMC); assay type: biochemical; conditions: cathepsin K 5 ng/ml, substrate Z-Val-Arg-AMC 20 μM, pH 5.5, two hours at room temperature; concentration range from 50 to 0.5 μM
T1 sequence (P43235 115-329): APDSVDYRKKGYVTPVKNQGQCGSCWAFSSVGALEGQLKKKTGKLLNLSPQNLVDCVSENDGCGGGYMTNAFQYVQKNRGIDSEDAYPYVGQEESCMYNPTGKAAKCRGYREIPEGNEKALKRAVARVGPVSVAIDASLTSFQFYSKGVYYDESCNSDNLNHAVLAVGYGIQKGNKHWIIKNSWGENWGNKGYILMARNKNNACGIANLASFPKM
Method: Pharmacological study of the products of the invention Study of the inhibition of cathepsin K
The test products (10 mM) are diluted to 1 mM in DMSO and distributed in polystyrene Nunc 96-well plates at a rate of 2 μl per well. Column 12 of the plate is reserved for the controls and thus receives […] of DMSO (without products) per well. The plates are stored at −80° C. and thawed on the day of the experiment.
The products are diluted to 50 μM by addition of 38 μl of reaction buffer: 100 mM sodium acetate, 5 mM EDTA, 1 mM DTT, pH 5.5. The addition and all the pipetting are performed with a 96-tip CybiWell pipette. After mixing the solutions, each product is transferred into 2 wells (duplicates) of a black Greiner 384-well plate at a rate of 10 μl per well. Two 96-well plates can thus be tested in one 384-well plate.
A solution of substrate, Z-Val-Arg-AMC (Calbiochem), at a concentration of 50 μm is prepared in the reaction buffer. The substrate is the distributed among all the wells of the 384-well plate (20 μl per well).
A solution of cathepsin K at a concentration of 12.5 ng/ml is prepared in the reaction buffer and distributed among all the wells of the 384-well plate (20 μl per well) except for the 16 wells serving as 100% inhibition controls (columns 23 and 24, lines I to P), which receive 20 μl of enzyme-free buffer. […] are performed in columns 23 and 24, lines A to H, which contain no products.
The plates are then incubated for two hours at room temperature, and then read on a Fluoroskan (Labsystems): excitation 390 nm; emission 460 nm.
The final concentrations of each of the reagents are: Products 10 μM, Substrate 20 μM, enzyme 5 ng/ml.
The percentages of inhibition for each of the products are calculated by using the points at 0 and 100% inhibition of each plate as references. The products showing significant inhibition are then retested over a concentration range from 50 to 0.5 μM to determine an IC50.

Molecule | IC50 [nM]
N#CC(NC(=O)[C@@H]1CCCN(C(=O)OCc2ccccc2)N1C(=O)CCNC(=O)Cc1ccccc1)c1cccc(Oc2ccccc2)c1 (stereo partly drawn) [Example 4, (phenylmethyl) (3S)-2-[1-oxo-3-[(phenylacetyl)amino]propyl]-3-[[[cyano(3-phenoxy-phenyl)methyl]amino]carbonyl]tetrahydro-1(2H)pyridazine-carboxylate] | 1000 to 10000
N#CC(OC(=O)[C@@H]1CCCN(C(=O)OCc2ccccc2)N1C(=O)CCNC(=O)Cc1ccccc1)c1cccc(Oc2ccc(Br)cc2)c1 (stereo partly drawn) [Example 9, 1-(phenylmethyl)-3-[cyano-3-[(4-bromophenoxy)phenyl]-methyl] (3S)2-[1-oxo-3-[(phenylacetyl)amino]propyl]-tetrahydro-1,3(2H)-pyridazinedicarboxylate] | 1000 to 10000
N#CC(OC(=O)[C@@H]1CCCN(C(=O)OCc2ccccc2)N1C(=O)CCNC(=O)Cc1ccccc1)c1cccc(Oc2ccccc2)c1 (mixture of isomers) [Example 7, 1-(phenylmethyl)-3-[(R)-cyano(3-phenoxyphenyl)methyl](3S)-2-[1-oxo-3-[(phenylacetyl)amino]propyl]tetrahydro-1,3(2H)-pyridazinedicarboxylate] | 1000 to 10000
N#CC(NC(=O)[C@@H]1CCCNN1C(=O)CCNC(=O)Cc1ccccc1)c1cccc(Oc2ccccc2)c1 (mixture of isomers) [Example 5, (3S)-2-[3-[(phenylacetyl)amino]-1-oxopropyl]-N-[cyano-(3-phenoxyphenyl)methyl]hexahydro-3-pyridazine-carboxamide] | < 1000
N#CC(OC(=O)[C@@H]1CCCNN1C(=O)CCNC(=O)Cc1ccccc1)c1cccc(Oc2ccccc2)c1 (mixture of isomers) [Example 8, 3-[cyano(3-phenoxyphenyl)methyl] (3S)-2-[1-oxo-3-[(phenylacetyl)-amino]propyl]tetrahydro-1,3-(2H)-pyridazinecarboxylate] | 1000 to 10000

Other lines, results leading:

IC50 [nM] | Molecule
1000 to 10000 | N#CCNC(=O)[C@@H]1CCCN(C(=O)OCc2ccccc2)N1C(=O)CCNC(=O)Cc1ccccc1 [Example 12]
< 1000 | N#CC(NC(=O)[C@@H]1CCCNN1C(=O)CCc1ccccc1)c1cccc(Oc2ccccc2)c1 (stereo partly drawn) [Example 15, (3S)-N-[cyano(3-phenoxyphenyl)methyl]-2-(1-oxo-3-phenylpropyl)hexa-hydro-3-pyridazinecarboxamide]
1000 to 10000 | N#CNC(=O)[C@@H]1CCCNN1C(=O)CCNC(=O)Cc1ccccc1 [Example 13, (3S)-N-cyano-2-[1-oxo-3-[(phenylacetyl)amino]propyl]hexahydro-3-pyridazinecarb-oxamide]
1000 to 10000 | N#CC(NC(=O)[C@@H]1CCCNN1C(=O)CCNC(=O)Cc1ccccc1)c1ccccc1 (stereo partly drawn) [Example 11, (3S)-N-(cyanophenyl-methyl)-2-[1-oxo-3-[(phenylacetyl)amino]propyl]hexa-hydro-3-pyridazinecarboxamide]
1000 to 10000 | N#CC(NC(=O)[C@@H]1CCCN(C(=O)OCc2ccccc2)N1C(=O)CCNC(=O)Cc1ccccc1)c1ccccc1 (stereo partly drawn) [Example 10, (phenylmethyl) (3S)-3-[[(cyanophenylmethyl)amino]carbonyl]-2-[1-oxo-3-[(phenylacetyl)amino]propyl]tetrahydro-1(2H)-pyridazinecarboxylate]
1000 to 10000 | (phenylmethyl) (3S)-3-[[[cyano(3-phenoxyphenyl)methyl]amino]carbonyl]-2-[3-phenyl-1-oxopropyl]tetrahydro-1(2H)-pyridazine-carboxylate [Example 14]
